Measurements reported in ChEMBL document CHEMBL3826929, “Discovery and Preclinical Evaluation of BMS-711939, an Oxybenzylglycine Based PPARα Selective Agonist” (ACS Med Chem Lett, 2016).

Columns and labels:
[1] = tested on: Syrian golden hamster; assay: Decrease in liver triglyceride level in high fat-diet fed syrian golden hamster model of dyslipidemia at 3 mg/kg administered qd through oral gavage measured after 21 days by FPLC analysis relative to control; assay type: functional, Mesocricetus auratus; design: scale not given: the % may be the effect or the level left
[2] = target: T1, Peroxisome proliferator-activated receptor alpha (Homo sapiens, UniProt Q07869); assay: Agonist activity at full length human PPAR-alpha transfected in human HepG2 cells by luciferase reporter gene assay; assay type: cell-based
T1 sequence (Q07869 whole entry): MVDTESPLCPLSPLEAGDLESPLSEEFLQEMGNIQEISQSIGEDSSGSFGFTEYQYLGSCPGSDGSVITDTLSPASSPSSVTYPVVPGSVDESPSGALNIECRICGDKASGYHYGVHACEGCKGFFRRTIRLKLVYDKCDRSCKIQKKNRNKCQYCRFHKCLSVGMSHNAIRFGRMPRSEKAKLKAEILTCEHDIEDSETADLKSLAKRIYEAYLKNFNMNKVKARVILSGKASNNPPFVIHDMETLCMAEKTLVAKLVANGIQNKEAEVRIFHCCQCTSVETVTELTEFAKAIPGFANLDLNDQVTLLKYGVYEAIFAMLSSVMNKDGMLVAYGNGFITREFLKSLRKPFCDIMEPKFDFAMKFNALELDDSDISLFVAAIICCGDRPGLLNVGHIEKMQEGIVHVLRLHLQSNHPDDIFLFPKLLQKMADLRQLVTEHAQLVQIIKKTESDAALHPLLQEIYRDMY

[3] = target: T2, Peroxisome proliferator-activated receptor alpha (Homo sapiens) (UniProt Q07869); assay: Intrinsic activity at PPAR-alpha (unknown origin) relative to fenofibric acid
T2 sequence (whole entry): T1 sequence (Q07869 whole entry)

[4] = Tmax in dog at 2 mg/kg, po; assay type: ADME, organism-based, Canis lupus familiaris; settings: in vivo
[5] = Tmax in cynomolgus monkey at 2 mg/kg, po; assay type: ADME, organism-based, Macaca fascicularis; settings: in vivo
[6] = AUC (0 to 8 hrs) in Balb/c mouse at 10 mg/kg, po; assay type: ADME, organism-based; design: dose 10 mg/kg, time < 8 hr, route oral; settings: in vivo
[7] = AUC (0 to 8 hrs) in cynomolgus monkey at 1 mg/kg, iv; assay type: ADME, organism-based, Macaca fascicularis; design: time < 8 hr, dose 1 mg/kg, route intravenous; settings: in vivo
[8] = Plasma clearance in Balb/c mouse at 5 mg/kg, iv; assay type: ADME, organism-based
[9] = Plasma clearance in dog at 1 mg/kg, iv; assay type: ADME, organism-based, Canis lupus familiaris
[10] = Volume of distribution at steady state in dog at 1 mg/kg, iv; assay type: ADME, organism-based, Canis lupus familiaris; settings: in vivo, read-out: Vdss
[11] = Half life in cynomolgus monkey at 1 mg/kg, iv; assay type: ADME, organism-based, Macaca fascicularis; settings: in vivo
[12] = target: Glucocorticoid receptor (Homo sapiens) (UniProt P04150); assay: Agonist activity at human GR by transactivation assay relative to standard compound
[13] = target: Cytochrome P450 2C19 (Homo sapiens, UniProt P33261); assay: Inhibition of CYP2C19 (unknown origin); assay type: ADME
[14] = tested on: Mus musculus; assay: Increase in ApoA1 level in transgenic mouse expressing human ApoA1 at 3 mg/kg administered qd through oral gavage measured after 10 days relative to vehicle-treated control; assay type: functional
[15] = tested on: Mus musculus; assay: Increase in HDL cholesterol level in transgenic mouse expressing human ApoA1 at 10 mg/kg administered qd through oral gavage measured after 10 days relative to vehicle control; assay type: functional

Chain of Cytochrome P450 2C19 (P33261 whole entry): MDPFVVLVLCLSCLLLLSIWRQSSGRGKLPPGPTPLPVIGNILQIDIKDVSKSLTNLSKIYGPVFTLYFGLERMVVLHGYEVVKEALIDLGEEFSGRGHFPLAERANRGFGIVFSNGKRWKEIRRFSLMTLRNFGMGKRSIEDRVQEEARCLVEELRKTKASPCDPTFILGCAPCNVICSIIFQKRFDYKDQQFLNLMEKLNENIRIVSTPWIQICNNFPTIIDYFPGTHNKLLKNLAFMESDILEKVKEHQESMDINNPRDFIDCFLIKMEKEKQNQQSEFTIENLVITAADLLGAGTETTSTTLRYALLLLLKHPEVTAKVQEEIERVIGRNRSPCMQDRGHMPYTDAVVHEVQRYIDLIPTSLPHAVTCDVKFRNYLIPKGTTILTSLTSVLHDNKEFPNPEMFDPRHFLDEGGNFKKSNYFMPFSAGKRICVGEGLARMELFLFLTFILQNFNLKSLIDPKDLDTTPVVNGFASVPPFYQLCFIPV
Chain of Glucocorticoid receptor (Homo sapiens) (P04150 whole entry): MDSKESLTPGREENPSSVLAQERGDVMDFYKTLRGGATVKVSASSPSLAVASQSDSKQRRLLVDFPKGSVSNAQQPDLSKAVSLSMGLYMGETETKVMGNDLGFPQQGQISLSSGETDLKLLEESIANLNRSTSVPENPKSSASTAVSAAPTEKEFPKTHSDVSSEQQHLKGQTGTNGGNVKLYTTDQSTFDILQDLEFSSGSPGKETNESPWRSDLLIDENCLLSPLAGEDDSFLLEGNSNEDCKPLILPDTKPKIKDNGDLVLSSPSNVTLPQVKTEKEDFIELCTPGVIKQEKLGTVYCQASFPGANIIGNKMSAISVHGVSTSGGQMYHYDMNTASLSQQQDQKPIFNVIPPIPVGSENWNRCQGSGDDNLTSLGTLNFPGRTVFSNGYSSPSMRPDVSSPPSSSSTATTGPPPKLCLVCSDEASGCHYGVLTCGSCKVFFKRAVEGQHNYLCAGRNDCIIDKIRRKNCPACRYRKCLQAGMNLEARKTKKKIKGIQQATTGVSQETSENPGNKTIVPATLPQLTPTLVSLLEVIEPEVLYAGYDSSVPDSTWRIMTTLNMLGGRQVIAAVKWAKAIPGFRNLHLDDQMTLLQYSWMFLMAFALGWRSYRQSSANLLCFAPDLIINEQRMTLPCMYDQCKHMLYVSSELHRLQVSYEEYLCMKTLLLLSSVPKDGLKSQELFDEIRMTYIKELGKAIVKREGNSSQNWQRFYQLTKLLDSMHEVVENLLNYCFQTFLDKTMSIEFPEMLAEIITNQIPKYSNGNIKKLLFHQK

EC50 [2]: 5 nM
Intrinsic activity [3]: > 50%
Tmax [4]: 48 min
Tmax [5]: 54 min
AUC(0-t) at 8 h [6]: 17 µM·h
AUC(0-t) at 8 h [7]: 7.5 µM·h
clearance [8]: 13.8 mL/min/kg
clearance [9]: 10.7 mL/min/kg
Vd [10]: 2.1 L/kg
half-life [11]: 1580 min
Efficacy [12]: < 15%
IC50 [13]: > 40000 nM
Structure (SMILES): COC(=O)N(CC(=O)O)Cc1cc(OCc2nc(-c3ccc(Cl)cc3)oc2C)ccc1F
Activity [1]: 39.8%
Activity [14]: 96%
Activity [15]: 74%
